Assay results from publication PMC10051705, “Leishmanicidal Activity of Guanidine Derivatives against Leishmania infantum” (Tropical Medicine and Infectious Disease, 2023).

Experiments:
human red blood cells = experiment: red blood cell lysis assay; format: cell-based; settings: 1 h, 37 °C
Description: The hemolytic activities of guanidine compounds were measured using human red blood cells from healthy adults (n = 3) according to methods previously described. Briefly, 80 µL of a 5% erythrocyte/phosphate-buffered saline (PBS) suspension was mixed with 20 µL of LQOFG-2, LQOFG-6, LQOFG-7, (1000 to 7.8 µM), and AmB (100 to 0.78 µM). After incubation at 37 °C for 1 h, 200 µL of PBS (1.5 mM KH2PO4, 8.1 mM Na2HPO4, 136.9 mM NaCl, and 2.6 mM KCl, pH 7.2) was added to stop the hemolysis process, and the samples were centrifuged for 10 min at 1000× g. The supernatants were collected, and the extent of hemolysis was measured spectrophotometrically at 540 nm. The hemolysis percentage was determined as [(Abssam − Abscon)/(Abstot − Abscon) × 100], where Abssam is the absorbance of the sample, Abscon is the absorbance of the blank control (without drugs), and Abstot is the absorbance of total hemolysis (replacing the sample solution with an equal volume of ultrapure water (Direct-Q UV®, Guyancourt, France)).

[1] = system: L. infantum promastigotes; experiment: promastigote growth inhibition assay (MTT); format: cell-based; settings: Leishmania infantum, 72 h, 26 °C
Description: The promastigote forms of Leishmania (Leishmania) infantum [IOC/L0579(MHOM/BR/1974/PP75)] were cultured in Schneider’s medium, pH 7.0, supplemented with 20% heat-inactivated fetal bovine serum (FBS), 2% male human urine, 100 U/mL of penicillin, and 100 mg/L of streptomycin, and the parasites were maintained at 26 °C. The procedure to obtain the extracellular axenic amastigote form of L. infantum was based on methods previously described that were modified using a Schneider medium readjusted to pH 5.5 at 37 °C. The culture of promastigote forms in the stationary phase was centrifuged, and the medium of these cells was replaced and differentiated into axenic amastigotes by temperature and medium pH changes. Parasites were maintained in culture for no more than 20 passages.
The promastigote growth inhibition assay was performed as previously described. Promastigotes were harvested during the exponential growth phase. They were incubated in the presence and absence of several concentrations of LQOFG-2, LQOFG-6, LQOFG-7 (500 to 7.8 µM), and AmB (10 to 0.078 µM) as the positive control. The plate was incubated at 26 °C for 72 h in a biological oxygen demand (B.O.D.) incubator using a Schneider’s medium (Schneider’s Insect Medium 24.5 g/L; L-glutamine 1.8 g/L; glucose 2 g/L and sodium bicarbonate 0.4 g/L; Sigma-Aldrich—St. Louis—USA) supplemented. The growth inhibition was evaluated using an MTT assay kit (Amresco, Solon, OH, USA) according to the manufacturer’s protocol. After 4 h of incubation, 10% sodium dodecyl sulfate was added to dissolve the formazan crystals. The absorbance (540 nm) was measured using a plate reader (Biosystems model ELx800; Curitiba, PR, Brazil). […] Three independent experiments we performed in triplicate.

[2] = system: L. infantum promastigotes; experiment: apoptosis/necrosis profiling, annexin V/PI staining, promastigotes; format: cell-based, Leishmania infantum
Description: To evaluate both apoptosis and necrosis, promastigote forms of L. infantum in the log phase of growth were incubated at several concentrations based on the IC50 values of LQOFG-2 (6.35; 12.7, 25.4, and 50.8 µM) LQOFG-6 (12.2, 24.4, 48.8 and 97.6 µM), and LQOFG-7 (11.65, 23.3, 46.6 and 93.2 µM), and AmB (1.5 and 6 µM) was used as the positive control. The plates were incubated for 24 h at 26 °C ± 1 °C in a B.O.D. incubator. After incubation, the promastigotes were washed three times in cold PBS, resuspended in binding buffer (10-mM HEPES, 140-mM NaCl, and 2.5-mM CaCl2, pH 7.4), and stained using a FITC Annexin V/Dead Cell Apoptosis Kit (BD Biosciences, San Jose, CA, USA) according to the manufacturer’s instructions. The stained cells were diluted and suspended in an Annexin V binding buffer (BD Biosciences, San Jose, CA, USA). Annexin V-FITC/propidium iodide (PI)-stained cells were analyzed using a BD FACSCanto II flow cytometer (BD Biosciences, San Jose, CA, USA). The raw data were analyzed using FlowJo 10.0.7 software (TreeStar Inc., Ashland, OR, USA).

[3] = in vitro cytotoxicity in PBMC (MTT); format: cell-based, human; settings: both sexes, human, peripheral blood mononuclear cells (PBMCs), human PBMC, 24 h, MTT
Description: In vitro cytotoxicity was evaluated using peripheral blood mononuclear cells (PBMCs) collected from three healthy volunteers (2 males, mean age 33; and 1 person). PBMCs were separated by density gradient using Ficoll Paque PLUS (GE Healthcare, USA), pelleted by centrifugation (400× g for 40 min), and resuspended in RPMI 1640 medium, then supplemented with 10% fetal bovine serum and 1% antibiotic solution (penicillin 5000 Units/mL + streptomycin 5000 μg/mL). After 24 h of treatment, cell viability was evaluated by the modified colorimetric method based on the tetrazolium dye MTT (3-(4,5-dimethylthiazol-2-yl)-2,5- diphenyltetrazolium bromide). The MTT assay was used for in vitro cytotoxicity as previously described with the following modifications: cells were exposed to serially diluted concentrations of LQOFG-2, LQOFG-6, LQOFG-7 (1000 to 7.8 µM), and AmB (100 to 0.78 µM). The plates were kept at 37 °C for 24 h. MTT (5 mg/mL) was added and incubated for 4 h at 37 °C, after which the plates were centrifuged, the supernatant was discarded, and DMSO was added, leaving the plates under stirring to solubilize the formazan salts. Absorbance was measured at 540 nm using a plate reader (ELx800; Curitiba, PR, Brazil). The mean percentage of viable cells was calculated relative to the untreated control.

[4] = system: L. infantum axenic amastigotes; experiment: axenic amastigote inhibition assay (MTT); format: cell-based; settings: Leishmania infantum, 24 h; for EC50: 37 °C, pH 5.5, MTT

Row | Structure (SMILES) | HC50, toxicity to red blood cells (human red blood cells) | IC50 [1] | % cells, Early Apoptosis (AV+, PI−) ([2]; 0.5× IC50, 24 h) | % cells, Late Apoptosis (AV+, PI+) ([2]; 0.5× IC50, 24 h) | % cells, Necrosis (AV−, PI+) ([2]; 0.5× IC50, 24 h) | % cells, Early Apoptosis (AV+, PI−) ([2]; 1× IC50, 24 h) | % cells, Late Apoptosis (AV+, PI+) ([2]; 1× IC50, 24 h) | % cells, Necrosis (AV−, PI+) ([2]; 1× IC50, 24 h) | % cells, Early Apoptosis (AV+, PI−) ([2]; 2× IC50, 24 h) | % cells, Late Apoptosis (AV+, PI+) ([2]; 2× IC50, 24 h) | % cells, Early Apoptosis (AV+, PI−) ([2]; 4× IC50, 24 h) | % cells, Late Apoptosis (AV+, PI+) ([2]; 4× IC50, 24 h) | CC50 at 24 h [3] | EC50 [4] | inhibition at 31.2 µM ([4]; at 31.2 µM, read-out: inhibition of axenic amastigotes compared to the control (untreated)) | % cells, Necrosis (AV−, PI+) ([2]; 4× IC50, 24 h)
1 | O=C(/N=C(/NCc1ccccc1)Nc1ccc(I)cc1)c1ccccc1 [LQOFG-7, (Z)-N-((benzylamine)((4-iodophenyl)amino)methylene)benzamide] | >1000 µM | 23.6 ± 0.64 µM | 0.28 ± 0.05% | 0.47 ± 0.07% | 0.87 ± 0.17% | 0.77 ± 0.04% | 0.41 ± 0.08% | 1.19 ± 0.12% | 0.76 ± 0.10% | 0.26 ± 0.09% | 0.39 ± 0.08% | 0.18 ± 0.07% | 745.5 ± 3.58 µM | 18.6 ± 1.23 µM | 58% | –
2 | C[C@@H]1[C@H](O)[C@@H](C)/C=C/C=C/C=C/C=C/C=C/C=C/C=C/[C@H](O[C@@H]2O[C@H](C)[C@@H](O)[C@H](N)[C@@H]2O)C[C@@H]2O[C@](O)(C[C@@H](O)C[C@@H](O)[C@H](O)CC[C@@H](O)C[C@@H](O)CC(=O)O[C@H]1C)C[C@H](O)[C@H]2C(=O)O [Amphotericin B, reference compound] | 7.10 ± 2.09 µM | 1.5 ± 0.23 µM | – | – | – | 0.67 ± 0.27% | 4.30 ± 0.28% | 7.64 ± 1.17% | – | – | 0.27 ± 0.09% | 65.83 ± 1.85% | 53.9 ± 3.59 µM | 0.3 µM | – | 33.10 ± 1.90%
